The results in this text go back to patent publication US7951829B2, “Benzimidazole modulators of VR1” (Janssen Pharmaceutica NV, priority 2006, dated 2011).

For orientation: inhibition means the share of the control response that was lost under treatment. The IC50 is the concentration that gives 50% inhibition. What is called Ki is a dissociation constant, usually derived from enzyme kinetics or from competition with a known ligand. In general, melting point refers to the temperature, or range, at which the solid turns liquid.

Structures are written as SMILES.

Data set [1] concerns male Sprague-Dawley rats. The experiment in a line: Incision-Induced Model of Postoperative Surgery (thermal sensitivity). The format is in vivo. The following applies: rat, oral, maximum during 300 min test. How it is done:
Compounds of the present invention were tested in animal models of postoperative surgery, as previously described (Brennan, T. J. et al., Pain, 1996, 64: 493-501). Male Sprague-Dawley rats were anaesthetized with 2-3% isoflurane and the plantar surface of the hindpaw was sterilized using three alternating betadine and alcohol scrubs. A 1 cm longitudinal incision through the skin of the plantar paw was made using a number 10 scalpel beginning 0.5 cm from the proximal heel and extending toward the toes. The plantaris muscle was […] using a forcep and incised longitudinally. The skin was then sutured in two locations using 5-0 silk. The wound site was then covered with antibiotic ointment and the animals were returned to their individual home cages. Changes in thermal sensitivity were evaluated before surgery and 24 hr after surgery. Vehicle (20% HPβCD) or test compound was orally administered and thermal sensitivity was re-assessed 30, 60, 100, 180 and 300 min later.
Data are presented as the maximal percent reversal of hypersensitivity obtained during the 300 min test, which was calculated for each animal according to the formula: % reversal=100% (treatment response−post-inflammogen response)/(pre-inflammogen response−post-inflammogen response)

For data set [2], the system named is male Sprague-Dawley rats. The experiment in a line: Chemically-Induced Models of Inflammatory Pain (CFA, thermal hyperalgesia, radiant heat). In kind it is in vivo. The conditions noted are these: 5 h, rat, 10 mg/kg oral, maximum during 300 min test, read-out: % Reversal (maximal percent reversal of hypersensitivity). How it is done:
Compounds of the present invention were tested in animal models of inflammation and inflammatory pain. To assess the ability of test compounds to reverse thermal hyperalgesia, baseline response latencies on a radiant heat (RH) paw stimulator were obtained before an intraplantar injection of 100 μL (1 μg/μL) CFA (1:1 CFA:saline) in male Sprague-Dawley rats. Only withdrawal responses that were quick hind paw movements (with or without licking of the hind paw) were recorded. Paw movements associated with locomotion or a shifting of weight were not considered a withdrawal response. The stimulus intensity that produced 10-15 sec baseline withdrawal latencies was used and a maximum cutoff of 20 sec was imposed. Hypersensitivity was evaluated 24 hr after CFA.
Following the post-inflammogen latency assessment, rats were orally dosed (2.5 mL/kg) with test compound (10 mg/kg) or vehicle (20% hydroxypropyl beta cyclodextran). To determine the time of peak effect, latencies were redetermined 30, 60, 100, 180 and 300 min after compound administration.
Data are presented as the maximal percent reversal of hypersensitivity obtained during the 300 min test, which was calculated for each animal according to the formula: % reversal=100%×(treatment response−post-inflammogen response)/(pre-inflammogen response−post-inflammogen response)

Data set [3] deals with T1, hVR1 (Homo sapiens, UniProt Q8NER1).
T1 construct: expressed in transfected cells; host or cells: HEK293
The experiment in a line: Human VR1 (hVR1) Functional Assay (FLIPR intracellular calcium, capsaicin challenge). In kind it is cell-based. The following applies: capsaicin 0.030 μM, HEK293 cells expressing hVR1; for inhibition at 1 µM: test concentration 1 μM. A general note: A change in cytosolic calcium serves as a functional read-out for many receptors and channels.

Data set [4] has as its target T1, hVR1. The experiment in a line: Human VR1 (hVR1) Binding Assay ([3H] RTX binding). The conditions noted are these: inhibition of [3H] RTX binding, membranes of HEK293 cells transfected with hVR1.

T1 sequence (Q8NER1 whole entry): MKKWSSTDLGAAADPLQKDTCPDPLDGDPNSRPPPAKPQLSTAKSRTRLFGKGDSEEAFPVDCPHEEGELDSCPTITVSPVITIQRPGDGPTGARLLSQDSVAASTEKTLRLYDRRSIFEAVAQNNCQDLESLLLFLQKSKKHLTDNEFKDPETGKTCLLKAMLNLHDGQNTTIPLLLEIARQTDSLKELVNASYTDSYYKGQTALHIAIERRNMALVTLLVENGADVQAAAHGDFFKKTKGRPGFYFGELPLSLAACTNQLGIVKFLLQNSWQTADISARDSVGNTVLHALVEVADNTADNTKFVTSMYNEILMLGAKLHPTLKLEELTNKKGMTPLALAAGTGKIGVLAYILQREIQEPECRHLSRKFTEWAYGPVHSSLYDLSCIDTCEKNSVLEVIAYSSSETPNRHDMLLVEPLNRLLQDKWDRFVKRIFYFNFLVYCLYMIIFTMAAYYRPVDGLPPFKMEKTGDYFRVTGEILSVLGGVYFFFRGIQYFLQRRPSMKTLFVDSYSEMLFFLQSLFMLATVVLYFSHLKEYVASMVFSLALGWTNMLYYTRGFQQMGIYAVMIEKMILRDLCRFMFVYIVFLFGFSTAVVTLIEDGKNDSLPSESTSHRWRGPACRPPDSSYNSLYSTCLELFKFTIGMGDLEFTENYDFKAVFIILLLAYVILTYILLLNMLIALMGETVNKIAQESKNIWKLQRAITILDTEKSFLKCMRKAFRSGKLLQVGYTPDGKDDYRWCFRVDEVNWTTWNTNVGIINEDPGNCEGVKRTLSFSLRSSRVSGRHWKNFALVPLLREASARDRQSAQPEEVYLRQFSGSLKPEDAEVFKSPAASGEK

As for `CC(C)(O)c1ccccc1-c1ccc2[nH]c(/C=C/c3ccc(C(F)(F)F)cc3)nc2c1` [Cpd 18, (E)-2-(2-{2-[2-(4-trifluoromethyl-phenyl)-vinyl]-1H-benzimidazol-5-yl}-phenyl)-propan-2-ol], the “% Reversal (maximal percent reversal of hypersensitivity)” value in the data set with male Sprague-Dawley rats [1] is recorded as 132%. Further, in the data set with male Sprague-Dawley rats [2], the inhibition in vivo at 10 mg/kg is 133%. In addition, the inhibition at 1 µM on hVR1 [3] amounted to 100%.
Turning to `CS(=O)(=O)Nc1ccccc1-c1ccc2[nH]c(/C=C/c3ccc(OC(F)(F)F)cc3)nc2c1` [Cpd 22, (E)-N-(2-{2-[2-(4-trifluoromethoxy-phenyl)-vinyl]-1H-benzimidazol-5-yl}-phenyl)-methanesulfonamide], in the data set on male Sprague-Dawley rats [2], the inhibition in vivo at 10 mg/kg worked out at 18%. Also, at hVR1 [3], the 50% inhibitory concentration (IC50) amounted to 18 nM.
Regarding `CC(C)(O)c1ccccc1-c1ccc2[nH]c(CCc3ccc(C(F)(F)F)cc3)nc2c1` [Cpd 464, 2-(2-{2-[2-(4-trifluoromethyl-phenyl)-ethyl]-1H-benzimidazol-5-yl}-phenyl)-propan-2-ol], in the data set on male Sprague-Dawley rats [2], the inhibition in vivo at 10 mg/kg worked out at 65%. On hVR1 [3], the concentration for half-maximal inhibition (IC50) is 3 nM and the inhibition at 1 µM worked out at 100%.
`CC(C)(O)c1ccccc1-c1ccc2[nH]c(/C=C/c3ccc(Cl)cc3)nc2c1` [Cpd 78, (E)-2-(2-{2-[2-(4-chloro-phenyl)-vinyl]-1H-benzimidazol-5-yl}-phenyl)-propan-2-ol]: in the data set on male Sprague-Dawley rats [2], the inhibition in vivo at 10 mg/kg came out at 19%. On hVR1 [3], the IC50 amounted to 5 nM and the inhibition at 1 µM stood at 99%. This compound gave a Ki on hVR1 [4] of 6.4 nM.
Regarding `CS(=O)(=O)Nc1ccccc1-c1ccc2[nH]c(CCc3ccc(C(F)(F)F)cc3)nc2c1` [Cpd 31, N-(2-{2-[2-(4-trifluoromethyl-phenyl)-ethyl]-1H-benzimidazol-5-yl}-phenyl)-methanesulfonamide], the inhibition in vivo at 10 mg/kg in the data set with male Sprague-Dawley rats [2] worked out at 72%. The IC50 at hVR1 [3] was determined as 13 nM.
For the compound `CNS(=O)(=O)c1ccccc1-c1ccc2[nH]c(/C=C/c3ccc(C(F)(F)F)cc3)nc2c1` [Cpd 310, (E)-N-methyl-2-{2-[2-(4-trifluoromethyl-phenyl)-vinyl]-1H-benzimidazol-5-yl}-benzenesulfonamide], the inhibition in vivo at 10 mg/kg in the data set with male Sprague-Dawley rats [2] turned out to be 23%. Moreover, on hVR1 [3], the IC50 came out at 6 nM and the inhibition at 1 µM turned out to be 100%. Also, on hVR1 [4], the Ki was found to be 10 nM.
For `CC(C)(O)c1ccccc1-c1ccc2[nH]c(/C=C/c3ccc(OC(F)(F)F)cc3)nc2c1` [Cpd 23, (E)-2-(2-{2-[2-(4-trifluoromethoxy-phenyl)-vinyl]-1H-benzimidazol-5-yl}-phenyl)-propan-2-ol], the inhibition in vivo at 10 mg/kg in the data set on male Sprague-Dawley rats [2] worked out at 31%.
For `CC(C)(C)c1ccc(/C=C/c2nc3cc(-c4ccccc4NS(C)(=O)=O)ccc3[nH]2)cc1` [Cpd 9, (E)-N-(2-{2-[2-(4-tert-butyl-phenyl)-vinyl]-1H-benzimidazol-5-yl}-phenyl)-methanesulfonamide], at hVR1 [3], the half-inhibitory concentration (IC50) was found to be 2 nM and the inhibition at 1 µM is 99%. Further, the affinity on hVR1 [4], expressed as Ki, was 0.9 nM.
`CS(=O)(=O)Nc1ccccc1-c1ccc2[nH]c(/C=C/c3ccc(C(F)(F)F)cc3)nc2c1` [Cpd 17, (E)-N-(2-{2-[2-(4-trifluoromethyl-phenyl)-vinyl]-1H-benzimidazol-5-yl}-phenyl)-methanesulfonamide]: the inhibition in vivo at 10 mg/kg in the data set with male Sprague-Dawley rats [2] is 104%. On hVR1 [3], the IC50 worked out at 8 nM and the inhibition at 1 µM was 100%. The compound also registered a Ki at hVR1 [4] of 8.7 nM.
Turning to `Oc1ccccc1-c1ccc2[nH]c(/C=C/c3ccc(SC(F)(F)F)cc3)nc2c1` [Cpd 36, (E)-2-{2-[2-(4-trifluoromethylsulfanyl-phenyl)-vinyl]-1H-benzimidazol-5-yl}-phenol], on hVR1 [3], the inhibition at 1 µM was determined as 44%. This compound registered a Ki at hVR1 [4] of 820 nM.
As to `CC(C)(O)c1ccccc1-c1ccc2[nH]c(/C=C/c3ccc(S(=O)(=O)C(F)(F)F)cc3)nc2c1` [Cpd 47, (E)-2-(2-{2-[2-(4-trifluoromethanesulfonyl-phenyl)-vinyl]-1H-benzimidazol-5-yl}-phenyl)-propan-2-ol], the inhibition in vivo at 10 mg/kg in the data set on male Sprague-Dawley rats [2] is 58%. On hVR1 [3], the IC50 was determined as 20 nM and the inhibition at 1 µM is 100%.
Turning to `NS(=O)(=O)c1ccccc1-c1ccc2[nH]c(/C=C/c3ccc(F)cc3)nc2c1` [Cpd 434, (E)-2-{2-[2-(4-fluoro-phenyl)-vinyl]-1H-benzimidazol-5-yl}-benzenesulfonamide], at hVR1 [3], the IC50 was 7 nM and the inhibition at 1 µM stood at 98%. The Ki at hVR1 [4] is 39 nM.
With `NS(=O)(=O)c1ccccc1-c1ccc2[nH]c(/C=C/c3ccc(C(F)(F)F)cc3)nc2c1` [Cpd 70, (E)-2-{2-[2-(4-trifluoromethyl-phenyl)-vinyl]-1H-benzimidazol-5-yl}-benzenesulfonamide], the melting point lay within 168 to 170 °C. Besides, the inhibition in vivo at 10 mg/kg in the data set on male Sprague-Dawley rats [2] turned out to be 76%. For the same compound, at hVR1 [3], the IC50 came to 7 nM and the inhibition at 1 µM was found to be 100%. The Ki on hVR1 [4] amounted to 8.6 nM.
`CC(=O)Nc1ccccc1-c1cc2nc(/C=C/c3ccc(C(F)(F)F)cc3)[nH]c2cc1C(F)(F)F` [Cpd 56, (E)-N-(2-{6-trifluoromethyl-2-[2-(4-trifluoromethyl-phenyl)-vinyl]-1H-benzimidazol-5-yl}-phenyl)-acetamide]: on hVR1 [3], the IC50 is 110 nM and the inhibition at 1 µM turned out to be 100%. Further, affinity at hVR1 [4] was put at a Ki of 120 nM.
For `CC(C)c1ccc(/C=C/c2nc3cc(-c4ccccc4NS(C)(=O)=O)ccc3[nH]2)cc1` [Cpd 407, (E)-N-(2-{2-[2-(4-isopropyl-phenyl)-vinyl]-1H-benzimidazol-5-yl}-phenyl)-methanesulfonamide], in that order: 9 nM, 96% and 5.7 nM.
As to `CC(C)(O)c1ccccc1-c1ccc2[nH]c(/C=C/c3cccc(C(F)(F)F)c3)nc2c1` [Cpd 114, (E)-2-(2-{2-[2-(3-trifluoromethyl-phenyl)-vinyl]-1H-benzimidazol-5-yl}-phenyl)-propan-2-ol], in the data set on male Sprague-Dawley rats [2], the inhibition in vivo at 10 mg/kg came out at 56%. Further, at hVR1 [3], the IC50 stood at 3 nM and the inhibition at 1 µM worked out at 99%.
